Values quoted from earlier work in patent US8642030B2, “Compositions containing coenzyme Q-10 and dihydrolipoic acid” (EPC Europe GmbH, priority 2006, dated 2014).

Details: cited from earlier work

COC1=C(OC)C(=O)C(C/C=C(\C)CC/C=C(\C)CC/C=C(\C)CC/C=C(\C)CC/C=C(\C)CC/C=C(\C)CC/C=C(\C)CC/C=C(\C)CC/C=C(\C)CCC=C(C)C)=C(C)C1=O [CoQ-10]
solubility in most hydrophilic solvents such as water: sparingly soluble
